The values below come from US20100015603A1, “Chimeric proteins for measuring atp concentrations in pericellular space and related screening method” (priority 2005, published 2010).

The subject of assay [1] is J774 macrophage cells. Kind of assay: ATP release / photon emission in J774 macrophage cells expressing pmeLUC probe. The class given is cell-based, mouse. The note with it: ATP 5 μM to 1 mM, FIG. 6A. How it is done:
(§1) Cells cultured in flasks for cell culture (75 cm^2) were transfected with a vector containing the produced chimeric probe, by transfection techniques more suitable for the cell line under examination. As experimental model established macrophage cells, named J774, and established pulmonary epithelial cells, named […], were used after being transfected with pmeLUC probe using TransFectin (Biorad) that ensure the major percent of positive cells for these cell lines.
(§2) 36 hours after transfection cells were removed from the bottom of flasks for trypsinization. Cell suspension was transferred in a Falcon tube (from 15 to 50 ml) and centrifuged at 1200 rpm at 20° C. and finally cell precipitate was re-suspended in DMEM medium supplemented with DTT (1 mM).
(§3) 50 μl of suspension containing transfected cells (corresponding to about 50.000 cells) were seeded in each well of the plate. Cells were incubated overnight.
(§4) The day after seeding cells were incubated with a saline solution (KRB: Krebs-Ringer modified buffer: 125 mM NaCl, 5 mM KCl, 1 mM Na3PO4, 1 mM MgSO4, 1 mM CaCl2, 5.5 mM glucose, 20 mM HEPES, pH 7.4, 37° C.) supplemented with luciferin (5 μM) and were directly contacted with a photomultiplier measuring photon emission by luciferase.

Assay [2] concerns A549 pulmonary epithelial cells. Kind of assay: ATP release / photon emission in A549 pulmonary epithelial cells expressing pmeLUC probe. The class given is cell-based, human. As to conditions: ATP 5 μM to 1 mM, FIG. 7A. How it is done:
as §1, §2, §3, §4

Assay [3] addresses T1, pmeLUC (Photinus pyralis, UniProt P08659, N119G/N50D).
T1 construct: expressed in transfected cells
Description: Response of HEK293-pmeLUC cells to extracellular nucleotides (affinity and selectivity of the pmeLUC probe, luminescence). The class given is cell-based. As to conditions: HEK293-pmeLUC cells, luminescence percent increase over basal. How it is done:
(§5) ATP was measured in the custom-made luminometer described by Rizzuto and co-workers (Brini et al., 1999; Jouaville et al., 1999). For experiments, cells were plated onto 13 mm coverslips and were placed in a 37° C. thermostatted chamber (diameter 15 mm, height 2 mm) and perfused with a saline solution supplemented with luciferin at a concentration of 5 μM. The chamber was held in a photomultiplier kept in a dark refrigerated (4° C.) box. Light emission was detected by a Thorn EMI photon counting board installed in an IBM-compatible computer. The board allowed storing of the data in the computer memory for further analysis. During the experiments the thermostatted chamber was continuously perfused with buffer by means of a Gilson peristaltic pump. Alternatively, ATP was measured in the supernatants using soluble luciferase in a Firezyme luminometer as previously described (Baricordi et al., 1999; Solini et al, 2004; Zanovello et al., 1990).
Affinity of pmeLUC for ATP is rather low, with a threshold of about 10 μM, however, subsequent ATP additions elicit further increases in light emission that allow building a calibration curve (FIG. 2B). Importantly, pmeLUC is insensitive to all other nucleotides tested (ADP, UTP, UDP and GTP) (FIG. 2A).

For assay [4], the target named is T2, rat P2X7R (Rattus norvegicus, UniProt Q64663).
T2 construct: expressed in transfected cells; host or cells: HEK293 (HEK293-rP2X7/pmeLUC)
T2 sequence (Q64663 1-595): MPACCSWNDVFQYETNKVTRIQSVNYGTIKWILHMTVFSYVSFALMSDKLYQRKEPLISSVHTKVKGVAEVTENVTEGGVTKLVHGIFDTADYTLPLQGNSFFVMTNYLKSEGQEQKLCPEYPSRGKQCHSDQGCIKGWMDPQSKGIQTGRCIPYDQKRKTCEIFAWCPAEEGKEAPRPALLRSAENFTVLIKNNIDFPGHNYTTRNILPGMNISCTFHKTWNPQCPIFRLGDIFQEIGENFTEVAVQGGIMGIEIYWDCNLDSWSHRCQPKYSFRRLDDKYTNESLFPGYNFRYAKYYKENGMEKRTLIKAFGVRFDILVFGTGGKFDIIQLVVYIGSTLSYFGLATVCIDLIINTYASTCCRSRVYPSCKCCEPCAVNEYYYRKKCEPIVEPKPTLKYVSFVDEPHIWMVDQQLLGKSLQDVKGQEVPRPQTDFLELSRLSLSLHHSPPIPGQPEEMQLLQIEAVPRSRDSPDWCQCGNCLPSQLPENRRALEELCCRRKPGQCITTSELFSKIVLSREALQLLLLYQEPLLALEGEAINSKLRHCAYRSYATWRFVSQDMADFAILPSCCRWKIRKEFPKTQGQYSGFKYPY
Kind of assay: ATP release through the P2X7 receptor in HEK293-rP2X7/pmeLUC cells, pmeLUC luminescence. The class given is cell-based. As to conditions: HEK293 cells transfected with rat P2X7R, FIG. 4A. As to the method: (§6) HEK293 cells were cultured in DMEM-F12 (Sigma-Aldrich). Media were supplemented with 10% heat-inactivated FBS, 100 U/ml penicillin and 100 μg/ml streptomycin (Invitrogen corporation, San Giuliano Milanese, Italy). ACN neuroblastoma cells were cultured in DMEM supplemented with MEM non-essential amino acid solution 100× (Sigma-Aldrich). HEK293 cells were transfected with the calcium phosphate method. Cells transiently expressing the pmeLUC construct were assayed 36 hours after transfection. Clones stably expressing pmeLUC or the P2X7R were generated by culture of the transfected cells in the presence of G418 (0.8 mg/ml, added 48 hours after transfection) for 3 weeks. Stable P2X7- or pmeLUC-expressing clones were kept in the continuous presence of 0.2 mg/ml of G418 sulphate (Geneticin) (Calbiochem, la Jolla, Calif.). ACN cells were transfected with pmeLUC by lipofectamine (Invitrogen) and tested 24 hours after transfection. Briefly, cells were incubated in 250 μl serum-free transfection medium (OPTIMEM) in the presence of lipofectamine-plus-DNA (0.4 μg per well). After 3 hours incubation 1 ml of DMEM plus 10% FBS supplemented with MEM non-essential amino acid solution 100× (Sigma-Aldrich) was added. Cells were assayed 24 hours after transfection. In order to allow a high level of plasma membrane expression of the transfected constructs, cells were incubated overnight in the presence of 1 mM DTT (Mezghrani et al, 2001). Furthermore, they were also kept at room temperature (21° C.) for two hours prior to transfer into the thermostated luminometer chamber.
ATP was measured in the custom-made luminometer described by Rizzuto and co-workers (Brini et al., 1999; Jouaville et al., 1999). […] Light emission was detected by a Thorn EMI photon counting board installed in an IBM-compatible computer. […] Alternatively, ATP was measured in the supernatants using soluble luciferase in a Firezyme luminometer as previously described (Baricordi et al., 1999; Solini et al, 2004; Zanovello et al., 1990). […]

The target in assay [5] is T3, human P2X7R (Homo sapiens, UniProt Q99572).
T3 construct: expressed in transfected cells; host or cells: HEK293 (HEK293-hP2X7/pmeLUC)
T3 sequence (Q99572 1-595): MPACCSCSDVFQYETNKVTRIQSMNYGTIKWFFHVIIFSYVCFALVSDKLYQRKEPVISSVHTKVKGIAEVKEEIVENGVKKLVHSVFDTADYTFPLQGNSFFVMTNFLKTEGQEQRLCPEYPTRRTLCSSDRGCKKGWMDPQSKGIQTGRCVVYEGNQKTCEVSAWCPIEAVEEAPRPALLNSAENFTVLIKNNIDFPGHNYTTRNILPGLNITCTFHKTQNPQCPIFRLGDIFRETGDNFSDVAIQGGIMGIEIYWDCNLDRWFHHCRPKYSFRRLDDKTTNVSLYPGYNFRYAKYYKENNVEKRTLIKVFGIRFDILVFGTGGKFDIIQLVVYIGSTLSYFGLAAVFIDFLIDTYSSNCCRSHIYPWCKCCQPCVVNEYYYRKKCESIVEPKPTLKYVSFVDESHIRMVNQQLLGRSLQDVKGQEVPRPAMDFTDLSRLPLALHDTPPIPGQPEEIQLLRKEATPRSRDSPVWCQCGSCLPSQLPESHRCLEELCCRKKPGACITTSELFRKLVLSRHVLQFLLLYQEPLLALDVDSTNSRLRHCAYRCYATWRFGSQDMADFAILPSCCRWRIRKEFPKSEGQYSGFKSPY
Description: ATP release through the P2X7 receptor in HEK293-hP2X7/pmeLUC cells, pmeLUC luminescence. The class given is cell-based. As to conditions: HEK293 cells transfected with human P2X7R, FIG. 4B. How it is done:
as §6, §5
Early experiments carried out not only by the authors of the present invention had shown that supernatants from cells expressing the P2X7 receptor contained a high level of ATP, which was not due to an accelerated rate of cell lysis (Baricordi et al., 1999; Adinolfi et al., 2003; Solini et al., 2004). […] To test such hypothesis several HEK293 clones were generated stably transfected with the human or rat P2X7R (HEK293-hP2X7 or HEK293-rP2X7, respectively). These clones were then transfected with pmeLUC (HEK293-P2X7/pmeLUC).

T1 sequence (P08659 with tags, fused parts or gaps N50D/N119G): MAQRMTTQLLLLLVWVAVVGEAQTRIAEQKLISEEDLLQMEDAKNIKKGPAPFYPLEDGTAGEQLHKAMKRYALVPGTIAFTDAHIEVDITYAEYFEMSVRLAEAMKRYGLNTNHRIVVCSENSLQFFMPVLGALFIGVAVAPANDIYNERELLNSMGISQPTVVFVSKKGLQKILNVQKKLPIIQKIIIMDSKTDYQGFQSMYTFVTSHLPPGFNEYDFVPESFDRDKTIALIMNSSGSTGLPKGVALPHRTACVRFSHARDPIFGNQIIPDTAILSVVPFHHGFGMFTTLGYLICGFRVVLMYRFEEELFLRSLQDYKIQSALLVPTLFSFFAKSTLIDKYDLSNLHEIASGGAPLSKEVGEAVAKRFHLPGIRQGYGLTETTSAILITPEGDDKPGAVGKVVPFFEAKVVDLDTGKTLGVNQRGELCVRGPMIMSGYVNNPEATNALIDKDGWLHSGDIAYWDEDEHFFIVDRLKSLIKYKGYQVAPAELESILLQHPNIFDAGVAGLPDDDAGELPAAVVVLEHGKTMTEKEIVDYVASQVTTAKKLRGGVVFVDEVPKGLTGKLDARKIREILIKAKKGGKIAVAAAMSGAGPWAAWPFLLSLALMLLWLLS

For `Nc1ncnc2c1ncn2[C@@H]1O[C@H](COP(=O)(O)OP(=O)(O)OP(=O)(O)O)[C@@H](O)[C@H]1O` [ATP], the “photon emission by the pmeLUC probe on addition of outer ATP” value in assay [1] and in assay [2] was “proportional to ATP concentration applied” in each case. Moreover, the “threshold of pmeLUC for ATP (affinity)” value in assay [3] is listed as “about 10 μM”. Also, the “ATP concentration at which extra-increase in luminescence over control cells is detectable” value in assay [4] is 10 to 50 µM. Moreover, the “ATP concentration at which luminescence increase over control cells is detectable” value in assay [5] is listed as “higher than 100 μM”.
